Source: patent publication US20100168228A1, “NOVEL CHEMOTHERAPEUTIC AGENTS AGAINST INFLAMMATION AND CANCER” (RELIANCE LIFE SCIENCES PVT. LTD., priority 2006, published 2010)

Columns and labels:
TNFα = experiment: Bioassay of TNFα production by LPS activated RAW 264.7 macrophages using L929 cell line; format: cell-based; conditions: Mus musculus; L929 + ActD + supernatant from LPS + compound (10 μM) treated RAW 264.7 macrophage; crystal violet; mean ± S.D. of triplicate; read-out: PERCENTAGE CELL SURVIVAL ± S.D.
Procedure: Measurement of TNFα in culture medium or supernatant is performed using immunoassay and bioassay. Bioassay was used for the measurement of bioactive TNFα production in the culture medium.
TNFα secretion into the medium by LPS activated macrophage was assayed using L929 tumorigenic murine cells (ATCC) specifically sensitive to TNFα. L929 cell cytotoxicity assay was performed by a modified method (Sano et al., The Journal of Immunology, 1999, 163: 387-395 The Journal of Immunology, 1999, 163: 387-395) based on that described elsewhere (Flick D A, Gifford G E. J Immunol Methods. 1984 Mar. 30; 68(1-2): 167-175). Briefly, the L929 cells (log phase cells) were seeded into a flat bottom 96 well plates (6×10^4/well) in 100 μl volume of RPMI 1640 containing 2% FCS and incubated overnight at 37° C. in a 5% CO2 incubator. A working dilution of the culture supernatant collected from LPS (200 ng/ml) activated macrophage in a volume of 100 μl per well was first tested to obtain 70-75% cytotoxicity equivalent to […] of recombinant TNFα standard to the TNFα sensitive L929 cell line. After incubation of the L929 cells appropriate fixed dilution of the culture supernatant collected from the compound treated (10 μM) wells, containing the LPS stimulated macrophages in a volume of 100 μl with 2 μg/ml Actinomycin D (Act D) was taken and added to the L929 cells and the cells were incubated at room temperature for 15 min followed by 18 h incubation at 37° C. overnight with 5% CO2. On the next day the medium was removed and the cells were stained with 0.2% (w/v) crystal violet for 10 minutes. The wells were gently rinsed with water, and 33% acetic acid (100 μl/well) was added to extract the retained crystal violet. The absorbance at 570 nm was finally measured.
Tumor necrosis factor-α can cause direct cytotoxicity to the lung fibroblast cell line (L929). Bioassay of TNF α is designated on the basis of this cytotoxicity of TNF α, which can be used for the identification of murine TNF α activity in tissue culture supernatants. Culture supernatant collected from the synthetic molecules treated well containing LPS stimulated macrophage modulated the extent of cytotoxicity to the L929 cells (see Table 1).

RAW 264.7 cells = experiment: Nitrite quantification (Griess) in LPS stimulated macrophages; format: cell-based, mouse; conditions: for CONCENTRATION OF NITRITE μM ± SD: RAW 264.7 + LPS (200 ng/ml) + 10 μM compound, 24 h, LPS + DMSO control 14.560, basal 0.782
Procedure: NO2^− accumulation was used as an indicator of Nitric Oxide (NO) production in the medium as described previously (Green et al., 1982 Anal Biochem 126, 131-138). […] The isolated supernatants were mixed with an equal volume of Griess reagent (1% sulfanilamide, 0.1% naphthylenediamine dihydrochloride, and 2% phosphoric acid) and incubated at room temperature for 15 min. NaNO2 was used to generate a standard curve, and nitrite production was determined by measuring the optical density at 540 nm.
To estimate the anti-inflammatory effects of all the synthetic molecules listed in this study, we measured the accumulation of nitrite, the stable metabolite of NO, in the culture media using Griess reagent.
To investigate the effect of CAMVE on NO production, we measured the accumulation of nitrite, the stable metabolite of NO, in the culture media using Griess reagent. To investigate the effect of CAMVE on NO production, Raw 264.7 cells, pretreated with indicated concentrations of CAMVE for 1 h were incubated with LPS (250 ng/ml) for 24 h.

Jurkat cells [1] = experiment: Cytotoxicity assay (MTT), Jurkat; format: cell-based, human
Procedure: FIG. 8: CAMVE potentiates apoptosis induced by TNF or chemotherapeutic agents. A1. Jurkat cells were incubated at 37° C. with TNF, in the presence and absence of 10 μM of CAMVE for 72 h and the viable cells were assayed using MTT reagent. The results are shown as the mean±S.D. from triplicate culture. A2. Jurkat cells (1×10^6 cells/ml) were pretreated with CAMVE for 3 h as indicated and incubated with TNF for 24 hrs, and PARP cleavage was determined by FACS analysis as described in the “Materials and Methods”. M2 gated population represents the percentage apoptotic population B. SA-LPS/Jkt cells pretreated with 10 μM of CAMVE for 3 h, were treated with 1 μM of cis-plastin, doxorubicin, taxol or vincristine for 72 h. The cytotoxicity was then assayed by MTT method. Results are shown as the mean±S.D. from triplicate samples.
FIG. 11: Dose response for compound 27 induced loss of cell viability and cell proliferation in Jurkat cell line. […] Error bars indicate±S.D.
Cytotoxicity was assayed by the modified tetrazolium salt 3-(4,5-dimethylthiazol-2-yl)-2,5-diphenyltetrazolium bromide (MTT) assay as described by Plumb, J A et al. (Cancer Res. 1989 Aug. 15; 49(16):4435-4440). […]

Jurkat cells [2] = experiment: PARP cleavage assay using flow cytometry, Jurkat; format: cell-based, human
Procedure: FIG. 8: CAMVE potentiates apoptosis induced by TNF or chemotherapeutic agents. A1. Jurkat cells were incubated at 37° C. with TNF, in the presence and absence of 10 μM of CAMVE for 72 h and the viable cells were assayed using MTT reagent. The results are shown as the mean±S.D. from triplicate culture. A2. Jurkat cells (1×10^6 cells/ml) were pretreated with CAMVE for 3 h as indicated and incubated with TNF for 24 hrs, and PARP cleavage was determined by FACS analysis as described in the “Materials and Methods”. […]
FIG. 15: Induction of apoptosis and PARP cleavage by compound 27. Jurkat cells were treated with 100 and 500 nM of the compound for indicated time period and PARP cleavage was determined using FACS analysis as described in the “Materials and Methods”. […]
Extent of PARP cleavage is determined using polyclonal antibody specifically recognizing the 85 kDa fragment of cleaved PARP (NSB 699 Novus Biologicals) and can be used as a marker for detecting apoptotic cells. […] Cells were washed twice with wash buffer (PBS+1% heat inactivated FBS) and analysed using FACS.
PARP Cleavage Assay using Flow Cytometry: Extent of PARP cleavage is determined using polyclonal antibody specifically recognizing the 85 kDa fragment of cleaved PARP (NSB 699 Novus Biologicals) and can be used as a marker for detecting apoptotic cells. […]

Row | SMILES | viability at 10 µM (TNFα) [%] | CONCENTRATION OF NITRITE μM ± SD (RAW 264.7 cells) [µM] | LPS induced nitrite production (RAW 264.7 cells; Raw 264.7 pretreated 1 h, LPS 250 ng/ml 24 h) | cytotoxicity induced by chemotherapeutic agents (MTT) (Jurkat cells [1]; SA-LPS (100 ng/ml) activated Jurkat, 10 μM CAMVE 3 h, then 1 μM cis-platin, doxorubicin, taxol or vincristine 72 h) | TNF induced PARP cleavage (apoptosis) (Jurkat cells [2]; pretreated 3 h, TNF 24 h) | GI50 (Jurkat cells [1]; Homo sapiens, Jurkat, MTT, 24 h and 48 h, read-out: GI50 (concentration causing 50% growth inhibition)) [nM] | PARP cleavage (Jurkat cells [2]; 100 nM and 500 nM, increasing with time)
1 | COC(=O)c1ccc(OC(=O)/C=C/c2ccc(O)c(O)c2)c(OC)c1 [compound 1, Methyl 4-{[(2E)-3-(3,4-dihydroxyphenyl)prop-2-enoyl]oxy}-3-methoxybenzoate] | 73.2 ± 1.77 | 1.849 ± 0.214 | inhibited by CAMVE treatment in a dose-dependent manner | significantly enhanced by CAMVE pretreatment | significant potentiation of PARP cleavage in a dose dependent manner |  | 
2 | COc1cc([C@@H]2Oc3c(OC)cc(/C=C/C(=O)O)cc3[C@H]2C(=O)O)ccc1O [compound 27, 5-[(E)-2-carboxyvinyl]-2β-(4-hydroxy-3-methoxyphenyl)-7-methoxy-2,3-dihydro-1-benzofuran-3α-carboxylic acid] | 46.5 ± 1.02 | 5.027 ± 0.200 |  |  |  | ~100 | significant PARP cleavage was achieved at 100 nM and 500 nM
